This is an account of results in article PMC5413024, “Mechanistic insights into the more potent effect of KP-54 compared to KP-10 in vivo” (PLoS ONE, 2017).

The structures appear in SMILES notation. Converted amounts (≈) assume the structure as drawn.

One series deals with c-FOS in GnRH neurons. The series can be described thus: Study 3: c-FOS activation in GnRH neurons after peripheral kisspeptin (dual-label immunohistochemistry, BSA-FITC to define the BBB). The format is in vivo, mouse. The note with it: male mice. The protocol:
Induction of expression of the immediate early gene c-Fos is regarded as a marker of neuronal activation. KISS1R activation results in c-FOS induction, which allows identification of the GnRH neurons that are activated by KP. We examined co-localization of c-FOS protein in GnRH neurons by immunohistochemistry 2h after peripheral injection of either KP-10 or KP-54. […] 1 nmol KP-54 was injected first, followed by injection of 100 μl of a 50mg/ml solution of BSA-FITC into the tail vein. The mice were perfused with 4% paraformaldehyde/PBS 2 hrs after KP-54 injection and the brains processed for c-FOS, GnRH and BSA-FITC detection. A negative control for fluorescence was also performed with unconjugated BSA.
Free-floating, dual-label chromogen immunohistochemistry was undertaken as described previously. Mice were perfused with 4% paraformaldehyde in PBS and the brains removed and post-fixed for 1h in the same fixative. The brains were cut as 40 μm free-floating coronal sections using a vibratome (VT1000S; Leica). […]
Sections were examined using an Axioscope 2 plus microscope (Carl Zeiss) using bright-field or fluorescence microscopy. […] Where appropriate, BSA-FITC was detected by epifluorescence microscopy at an excitation wavelength of 490 nm and an emission wavelength of 525 nm (green). About fifteen successive sections containing GnRH neurons were counted per animal (n = 6 per treatment). […]

Series [1] is described as follows: Study 4: pharmacokinetics of plasma kisspeptin after i.p. injection (radioimmunoassay). In kind it is in vivo, mouse. The following applies: male mice, 1 nmol i.p. As to the method:
Male mice received a single i.p. injection of 1 nmol KP-10 or 1 nmol KP-54. 100 μl of blood was collected from the lateral tail vein from groups of mice (n = 4) for each time point (0, 1 min, 2 min, 5 min, 10 min, 30 min, 60 min and 120 min). Terminal bleeds were collected from the vena cava. Blood was mixed with 5 μl EDTA, centrifuged at 10,000 x g for 10 min at 4°C to obtain the plasma fraction, and stored at -20°C until assayed. Kisspeptin concentrations were measured using an established in house competitive radioimmunoassay (RIA, [5]. Briefly, this RIA uses a sheep polyclonal antibody (GQ2), raised against human KP-54, which cross-reacts with human KP-54, KP-14 and KP-10.
3–5 month old wild-type (129S6/SvEv) male mice were used in this study. The mice were housed in open cages on a 12 hour light cycle (lights on at 0700 h) at a controlled temperature (22°C), and were provided with food and water ad libitum. All experiments were performed under the authority of a United Kingdom Home Office Project License and were approved by a Cambridge Animal Ethics Committee.

For series [2] the following is noted: from the product data sheets; ref product data sheets (manufacturer); cited from earlier work. The protocol:
KP-10 [human Metastin (45–54) amide, M-2816] was purchased from Sigma-Aldrich. KP-10 consists of the C-terminal 10-amino acids of KP-54. Human KP-54 was synthesized by the Advanced Biotechnology Centre, Imperial College, London, UK. BSA-FITC was purchased from Sigma (A9771). From the product data sheets, the solubility of KP-10 and KP-54 in water is 1mg/ml. We prepared stock solutions in sterile PBS at 100 μM, which is almost ten times lower than the solubility limit set by the manufacturer. The 100 μM stock solution was diluted in sterile PBS and 100 μl of the working solution was injected to ...

`CC[C@H](C)[C@H](NC(=O)[C@H](CCC(N)=O)NC(=O)[C@H](CCCNC(=N)N)NC(=O)[C@H](CO)NC(=O)[C@H](Cc1c[nH]cn1)NC(=O)[C@@H]1CCCN1C(=O)[C@H](C)NC(=O)[C@H](CO)NC(=O)[C@H](CC(C)C)NC(=O)CNC(=O)[C@@H]1CCCN1C(=O)[C@H](CCC(N)=O)NC(=O)[C@H](CCC(N)=O)NC(=O)[C@H](CCCNC(=N)N)NC(=O)[C@H](CO)NC(=O)CNC(=O)[C@H](CO)NC(=O)[C@H](CO)NC(=O)[C@H](CCC(=O)O)NC(=O)[C@@H]1CCCN1C(=O)[C@@H]1CCCN1C(=O)[C@@H]1CCCN1C(=O)[C@H](CO)NC(=O)[C@H](CC(C)C)NC(=O)[C@H](CO)NC(=O)[C@@H](NC(=O)CN)[C@@H](C)O)C(=O)N1CCC[C@H]1C(=O)N[C@@H](C)C(=O)N1CCC[C@H]1C(=O)N[C@@H](CCC(N)=O)C(=O)NCC(=O)N[C@@H](C)C(=O)N[C@H](C(=O)N[C@@H](CC(C)C)C(=O)N[C@H](C(=O)N[C@@H](CCC(N)=O)C(=O)N[C@@H](CCCNC(=N)N)C(=O)N[C@@H](CCC(=O)O)C(=O)N[C@@H](CCCCN)C(=O)N[C@@H](CC(=O)O)C(=O)N[C@@H](CC(C)C)C(=O)N1CCC[C@H]1C(=O)N[C@@H](CC(N)=O)C(=O)N[C@@H](Cc1ccc(O)cc1)C(=O)N[C@@H](CC(N)=O)C(=O)N[C@@H](Cc1c[nH]c2ccccc12)C(=O)N[C@@H](CC(N)=O)C(=O)N[C@@H](CO)C(=O)N[C@@H](Cc1ccccc1)C(=O)NCC(=O)N[C@@H](CC(C)C)C(=O)N[C@@H](CCCNC(=N)N)C(=O)N[C@@H](Cc1ccccc1)C(N)=O)C(C)C)C(C)C` [KP-54]: the “c-FOS activation of GnRH neurons behind the blood brain barrier (functional surrogate for BBB crossing)” value in the series on c-FOS in GnRH neurons (1 nmol KP-54 plus i.v. BSA-FITC (does not cross the BBB), 2 h, n = 3) is “c-FOS-positive GnRH neurons in hypothalamic areas that were negative for BSA-FITC”. Further, the “percentage of GnRH neurons positive for c-FOS (all regions)” value in the series on c-FOS in GnRH neurons (2 h after peripheral injection of 1 nmol, n = 6, vehicle 0.54 ± 0.15%) is 22.07 ± 2.96%. For the same molecule, the level at time molar at 0.5 h in series [1] (129S6/SvEv, mouse, plasma, ip, RIA, mean ± SEM, n = 4, read-out: plasma kisspeptin level at 30 min post-injection) was 13.2 ± 4.36 nM. For the same molecule, the level at time molar at 1 h in series [1] (129S6/SvEv, mouse, plasma, ip, RIA, mean ± SEM, n = 4, read-out: plasma kisspeptin level at 60 min post-injection) turned out to be 5.03 ± 0.787 nM. In series [1] (129S6/SvEv, mouse, plasma, ip, RIA, mean ± SEM, n = 4, read-out: plasma kisspeptin level at 120 min post-injection), the level at time molar at 2 h was 1.19 ± 0.33 nM. Moreover, in series [1] (RIA (GQ2 antibody), mean ± SEM, n = 4 per time point), the “peak (maximum) plasma kisspeptin level” value was found to be 12292 ± 2655 pmol/L. Further, the “time of peak plasma kisspeptin level post-injection” value in series [1] (RIA, n = 4 per time point) is 5 min. For the same molecule, the plasma half-life result in series [1] (estimated from RIA plasma levels, RIA recognises all forms of Kp, may include breakdown products) is recorded as “around 32 min”. In series [1] (assuming a total blood volume of approximately 5 ml), the “fraction of the injected peptide entering the bloodstream after intraperitoneal injection” value is given as approximately 6%. The solubility in water in series [2] was 1 mg/mL (≈ 171 µM).
